Laboratory results taken from patent US11999727B2 (Tango Therapeutics, Inc., priority 2020, dated 2024).

Tests used:
[1] = tested on: HAP1 MTAP-intact cell line; experiment: SDMA in-cell western assay, HAP1 MTAP-intact; assay type: cell-based; details: Homo sapiens, HAP1, SDMA in-cell western, HAP1 MTAP-intact; read-out: MTAP HAP1 intact IC50
How it was run: (§1)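 IC50 values come from SDMA signal quantified by in-cell western in two HAP1 lines, one with native MTAP levels and one lacking MTAP.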

[2] = tested on: HAP1 MTAP-deleted cell line; experiment: SDMA in-cell western assay, HAP1 MTAP-deleted; assay type: cell-based; details: for IC50: Homo sapiens, HAP1, SDMA in-cell western, HAP1 MTAP-deleted; for MTAP intact/deleted ratio: IC50 ratio HAP1 MTAP-intact / HAP1 MTAP-deleted, SDMA in-cell western
How it was run: as §1

PRMT5 [3] = target: T1, PRMT5 (Homo sapiens, UniProt O14744); experiment: PRMT5 biochemical IC50 assay with MTA as cofactor; details: PRMT5, MTA as cofactor; read-out: MTA IC50
T1 construct: purchased Viva (custom protein)
T1 sequence (O14744 whole entry): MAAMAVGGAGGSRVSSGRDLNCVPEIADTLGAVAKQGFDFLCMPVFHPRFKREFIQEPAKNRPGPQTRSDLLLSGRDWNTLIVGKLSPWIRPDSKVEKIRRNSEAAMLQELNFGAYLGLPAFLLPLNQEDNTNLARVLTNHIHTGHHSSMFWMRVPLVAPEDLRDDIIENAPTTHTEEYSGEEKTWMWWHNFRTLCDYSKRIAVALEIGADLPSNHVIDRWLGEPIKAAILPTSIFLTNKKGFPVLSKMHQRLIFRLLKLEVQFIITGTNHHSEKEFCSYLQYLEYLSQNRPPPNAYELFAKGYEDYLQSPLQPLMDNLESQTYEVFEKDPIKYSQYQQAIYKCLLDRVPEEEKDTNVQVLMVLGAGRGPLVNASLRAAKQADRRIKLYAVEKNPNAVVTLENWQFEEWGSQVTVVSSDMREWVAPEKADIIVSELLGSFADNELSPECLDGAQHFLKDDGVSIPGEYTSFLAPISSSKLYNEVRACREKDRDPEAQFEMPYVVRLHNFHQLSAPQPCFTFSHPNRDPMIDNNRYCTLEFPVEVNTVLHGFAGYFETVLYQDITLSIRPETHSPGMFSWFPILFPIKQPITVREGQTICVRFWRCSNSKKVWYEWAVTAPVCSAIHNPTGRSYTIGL
T1 sequence (Q9BQA1 whole entry partner): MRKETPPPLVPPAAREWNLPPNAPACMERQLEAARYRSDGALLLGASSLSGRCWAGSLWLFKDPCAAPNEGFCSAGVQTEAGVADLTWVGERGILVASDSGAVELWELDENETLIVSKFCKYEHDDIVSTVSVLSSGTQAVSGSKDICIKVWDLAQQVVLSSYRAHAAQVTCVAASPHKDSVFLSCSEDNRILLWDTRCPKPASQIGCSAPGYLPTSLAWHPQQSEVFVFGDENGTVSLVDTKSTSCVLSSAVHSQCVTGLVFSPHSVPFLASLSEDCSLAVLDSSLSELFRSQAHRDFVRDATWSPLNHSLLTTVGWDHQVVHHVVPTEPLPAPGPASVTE

PRMT5 [4] = target: T1, PRMT5; experiment: PRMT5 biochemical IC50 assay with SAM as cofactor; details: PRMT5, SAM as cofactor; read-out: SAM IC50
PRMT5 [5] = target: T1, PRMT5; experiment: PRMT5 biochemical IC50 assay with no cofactor; details: PRMT5, no cofactor; read-out: No Cofactor/rel IC50
From the text: Table 1 indicates IC50 values (μM) against PRMT5 for exemplary compounds in the presence of SAM as cofactor, with no cofactor, and with MTA as cofactor, respectively (columns 4-6). […] Ki values can be calculated from the IC50 values as described in the Examples section. As detailed in the Examples section, for the assay performed in the presence of SAM, IC50=Ki×1.5 (Ki=IC50/1.5).

[6] = tested on: HAP1 MTAP-deleted cell line; experiment: Viability assay, MTAP-deleted cell line; assay type: cell-based; details: Homo sapiens, HAP1, viability assay, read-out: HAP1 MTAP deleted viability
From the text: Table 1 additionally indicates IC50 values in a viability assay for the MTAP-deleted cell line (column 10), indicating the effect of treatment with compound on cell survival.

[7] = read-out: HAP1 MTAP deleted IC50
[8] = read-out: HAP 1 MTAP deleted IC50

| SMILES | IC50 [1] [nM] | IC50 [2, 7] [nM] | IC50 (PRMT5 [3]) [nM] | IC50 (PRMT5 [4]) [nM] | IC50 (PRMT5 [5]) [nM] | IC50 [2, 8] [nM] | MTAP intact/deleted ratio [2] | IC50 ([6]; HAP1 MTAP-deleted) [nM] | IC50 ([6]; MTAP-deleted cell line) [nM] |
| --- | --- | --- | --- | --- | --- | --- | --- | --- | --- |
| CCc1cc(NC(=O)C(=O)N2C[C@@H](C)CC[C@@H]2c2ccc3c(c2)OCCN3)cnc1N (racemic) [Compound 870, N-(6-amino-5-ethyl-3-pyridyl)-2-[(2R,5S)-2-(3,4-dihydro-2H-1,4-benzoxazin-7-yl)-5-methyl-1-piperidyl]-2-oxo-acetamide] | > 1000 | < 100 | 50 to 500 | 50 to 500 | 50 to 500 | – | A (an IC50 ratio greater than or equal to 10 fold) | < 1000 | – |
| Cc1cc(NC(=O)C(=O)N2C[C@@H](C)CC(F)(F)[C@@H]2c2ccc(F)cc2)cnc1N (racemic) [Compound 871, N-(6-amino-5-methyl-3-pyridyl)-2-[(2S,5S)-3,3-difluoro-2-(4-fluorophenyl)-5-methyl-1-piperidyl]-2-oxo-acetamide] | 100 to 1000 | < 100 | < 50 | 50 to 500 | 50 to 500 | – | B (an IC50 ratio greater than or equal to 3 fold but lower than 10 fold) | 1000 to 10000 | – |
| C[C@@H]1CC[C@@H](c2ccc(F)cc2)N(C(=O)C(=O)Nc2cnc(N)c(C(F)(F)F)c2)C1 (racemic) [Compound 872, N-[6-Amino-5-(trifluoromethyl)-3-pyridyl]-2-[(2S,5R)-2-(4-fluorophenyl)-5-methyl-1-piperidyl]-2-oxo-acetamide] | > 1000 | 100 to 1000 | 50 to 500 | > 500 | 50 to 500 | – | A (an IC50 ratio greater than or equal to 10 fold) | 1000 to 10000 | – |
| C[C@@H]1CC[C@@H](c2ccc(F)cc2)N(C(=O)C(=O)Nc2cnc(OC(F)F)c(C(N)=O)c2)C1 (racemic) [Compound 889, 2-(difluoromethoxy)-5-(2-(2-(4-fluorophenyl)-5-methylpiperidin-1-yl)-2-oxoacetamido)nicotinamide] | > 1000 | – | 50 to 500 | > 500 | 50 to 500 | > 1000 | B (an IC50 ratio greater than or equal to 3 fold but lower than 10 fold) | – | > 10000 |
| COc1ncc(NC(=O)C(=O)N2C[C@@H](C)CC[C@@H]2c2cnc3c(c2)CCC(=O)N3)cc1C(N)=O (racemic) [Compound 891, rac-2-Methoxy-5-[[2-[(2S,5R)-5-methyl-2-(7-oxo-6,8-dihydro-5H-1,8-naphthyridin-3-yl)-1-piperidyl]-2-oxo-acetyl]amino]pyridine-3-carboxamide] | > 1000 | – | 50 to 500 | 50 to 500 | 50 to 500 | 100 to 1000 | A (an IC50 ratio greater than or equal to 10 fold) | – | > 10000 |
| Cc1cc(NC(=O)C(=O)N2CC[C@H](N(C)C)C[C@H]2c2ccccc2)cnc1N (racemic) [Compound 906] | > 1000 | – | 50 to 500 | 50 to 500 | > 500 | > 1000 | C (an IC50 ratio of less than 3 fold) | – | > 10000 |
| Cc1cc(NC(=O)C(=O)N2C[C@H](C)CC[C@H]2c2ccc3nn(C)cc3c2)cnc1N (racemic) [Compound 912] | 100 to 1000 | – | 50 to 500 | 50 to 500 | 50 to 500 | < 100 | A (an IC50 ratio greater than or equal to 10 fold) | – | < 1000 |

Further lines, with some results ahead:

| IC50 [1] [nM] | IC50 [2, 7] [nM] | IC50 (PRMT5 [3]) [nM] | IC50 (PRMT5 [4]) [nM] | IC50 (PRMT5 [5]) [nM] | IC50 [2, 8] [nM] | SMILES | MTAP intact/deleted ratio [2] | IC50 ([6]; HAP1 MTAP-deleted) [nM] | IC50 ([6]; MTAP-deleted cell line) [nM] |
| --- | --- | --- | --- | --- | --- | --- | --- | --- | --- |
| > 1000 | 100 to 1000 | < 50 | 50 to 500 | 50 to 500 | – | C[C@@H]1C[C@H](F)[C@@H](c2ccc(F)cc2)N(C(=O)C(=O)Nc2cncc(C(N)=O)c2)C1 (racemic) [Compound 879, 5-[[2-[(2R,3S,5R)-3-fluoro-2-(4-fluorophenyl)-5-methyl-1-piperidyl]-2-oxo-acetyl]amino]pyridine-3-carboxamide] | A (an IC50 ratio greater than or equal to 10 fold) | 1000 to 10000 | – |
| > 1000 | 100 to 1000 | 50 to 500 | > 500 | > 500 | – | Cc1ccc([C@@H]2CC[C@H](C)CN2C(=O)C(=O)Nc2cncc(C(N)=O)c2)nc1 (racemic) [Compound 880, 5-[[2-[(2R,5R)-5-Methyl-2-(5-methyl-2-pyridyl)-1-piperidyl]-2-oxo-acetyl]amino]pyridine-3-carboxamide] | A (an IC50 ratio greater than or equal to 10 fold) | > 10000 | – |
| > 1000 | – | 50 to 500 | > 500 | > 500 | > 1000 | COc1ncc(NC(=O)C(=O)N2C[C@@H](C)CC[C@H]2c2ccc(C)cn2)cc1C(N)=O (racemic) [Compound 886, 2-Methoxy-5-[[2-[(2R,5R)-5-methyl-2-(5-methyl-2-pyridyl)-1-piperidyl]-2-oxo-acetyl]amino]pyridine-3-carboxamide] | B (an IC50 ratio greater than or equal to 3 fold but lower than 10 fold) | – | > 10000 |
| > 1000 | – | 50 to 500 | 50 to 500 | 50 to 500 | > 1000 | C[C@@H]1CC[C@@H](c2cnc3c(c2)CCC(=O)N3)N(C(=O)C(=O)Nc2cncc(C(N)=O)c2)C1 (racemic) [Compound 888, rac-5-[[2-[(2S,5R)-5-Methyl-2-(7-oxo-6,8-dihydro-5H-1,8-naphthyridin-3-yl)-1-piperidyl]-2-oxo-acetyl]amino]pyridine-3-carboxamide] | C (an IC50 ratio of less than 3 fold) | – | > 10000 |
| > 1000 | – | 50 to 500 | > 500 | 50 to 500 | 100 to 1000 | C[C@@H]1C[C@@H](F)[C@@H](c2ccc(F)cc2)N(C(=O)C(=O)Nc2cncc(C(N)=O)c2)C1 (racemic) [Compound 898, 5-[[2-[(2R,3R,5R)-3-fluoro-2-(4-fluorophenyl)-5-methyl-1-piperidyl]-2-oxo-acetyl]amino]pyridine-3-carboxamide] | A (an IC50 ratio greater than or equal to 10 fold) | – | 1000 to 10000 |
| > 1000 | – | 50 to 500 | 50 to 500 | 50 to 500 | < 100 | CNc1ccc([C@@H]2CC[C@@H](C)CN2C(=O)C(=O)Nc2cncc(C(N)=O)c2)nc1 (racemic) [Compound 907, 5-[[2-[(2R,5S)-5-methyl-2-[5-(methylamino)-2-pyridyl]-1-piperidyl]-2-oxo-acetyl]amino]pyridine-3-carboxamide] | A (an IC50 ratio greater than or equal to 10 fold) | – | 1000 to 10000 |
| > 1000 | – | > 500 | > 500 | > 500 | > 1000 | CCc1cc(NC(=O)C(=O)N2C[C@H](C)CC[C@H]2c2cccc3[nH]ncc23)cnc1N (racemic) [Compound 911, N-(6-amino-5-ethyl-3-pyridyl)-2-[(2S,5R)-2-(1H-indazol-4-yl)-5-methyl-1-piperidyl]-2-oxo-acetamide] | C (an IC50 ratio of less than 3 fold) | – | > 10000 |
